In series [1] the test system is ALAS1. In words: qRT-PCR analysis of ALAS1 expression in SKCO1 cells. It counts as cell-based, human.
The test system of series [2] is SH-SY5Y cells. In words: Heme content in SHSY-5Y cells. Type of series: cell-based, human. An excerpt: (A) Frequency (%) of patient tumors with overexpression of FLVCR1 compared to their matched normal tissues across multiple cancer types. The number of patients showing tumor FLVCR1 overexpression relative to the total number of patients examined are indicated in the plot. Data derive from the BioXpress (Wan et al., 2015). […] Transcript abundance, normalized to beta-actin mRNA expression (for SHSY-5Y cells) or to 18s mRNA (for BTECs), is expressed as a fold increase over a calibrator sample. Data represent mean±SEM, n=4. For statistical analyses, an unpaired Student's t-test was used; ***p<0.001. (C, E) Western blot analysis of FLVCR1a expression in SHSY-5Y cells (C) and BTECs (E). Vinculin expression is shown as a loading control. Band intensities were measured by densitometry and normalized to vinculin expression. […] Values are expressed as pmol heme/mg protein. […] Values are expressed as pmol heme/mg protein. […]
(A) Heme content in SHSY5Y cells non-treated (NT) or treated with 5 mM ALA for 15 hours. Values are expressed as pmol heme/mg protein. […] Transcript abundance, normalized to beta-actin mRNA expression, is expressed as a fold increase over a calibrator sample. […] Transcript abundance, normalized to beta-actin mRNA expression, is expressed as a fold increase over a calibrator sample. […] Band intensities were measured by densitometry and normalized to beta-actin expression. […]

For `Cl.NCC(=O)CCC(=O)O` [5-ALA, 5-Aminolevulinic acid hydrochloride], in series [1] (SKCO1 cells, 5 mM ALA for 24 hours vs untreated), the “ALAS1 mRNA levels” value is “decreased”. The “heme content inside the cells” value in series [2] (5 mM ALA for 15 hours vs non-treated) is reported as “promoted heme accumulation inside the cells”.
For “FLVCR1a shRNA: shRNA specifically down-regulating FLVCR1a without targeting FLVCR1b; pLKO.1 lentiviral clone TRCN0000059599, antisense SEQ ID No.: 2 (antisense TTGCTAATGATGCTGTACTGG; sense CCAGTACAGCATCATTAGCAA)”, the “ALAS1 expression (qRT-PCR)” value in series [1] (FLVCR1a-silenced vs scramble shRNA SKCO1 cells) is reported as “reduced ALAS1 expression”. Further, the “heme accumulation upon stimulation of de-novo heme biosynthesis” value in series [2] (FLVCR1a-silenced vs scramble shRNA, 5 mM 5-ALA for 15 hours) is listed as “higher heme accumulation than controls”.

Source of the values: patent US20240285670A1, “THERAPEUTIC TREATMENT OF TUMORS BY BLOCKING THE HEME SYNTHESIS-EXPORT AXIS” (Università degli Studi di Torino, priority 2021, published 2024).
